This note sets out measurements from US11426448B2, “Methods for treatment of erectile dysfunction with sonic hedgehog compounds” (NORTHWESTERN UNIVERSITY, priority 2018, dated 2022).

The subject of this experiment is MPG/CN neurons. Description: MPG/CN organ culture with Affi-Gel beads, quantification of neurites. To be noted: uninjured MPG/CN, three days, SHH inhibitors on Affi-Gel beads, vs DMSO or PBS. It is filed as cell-based, Sprague Dawley rats.

As for `CC1=C2C[C@H]3[C@@H](CC=C4C[C@@H](O)CC[C@@]43C)[C@@H]2CC[C@]12O[C@@H]1C[C@H](C)CN[C@H]1[C@H]2C` [cyclopamine], the neurite formation reduced was determined as 5.6 fold and the “neurite formation reduced / inhibited” value was found to be 82%.
